From US20060270742A1, “Compositions and methods for the treatment of neurodegenerative diseases” (priority 2005, published 2006)

Assays:
[1] = system: SMN protein; experiment: SMN cytoblot assay in SMA patient fibroblasts; assay type: cell-based, human; details: for SMN protein levels: SMA patient fibroblasts, cytoblot; for SMN per viable cell (normalized hit): SMN cytoblot relative to cell number estimated by Alamar blue
Description: One method for monitoring SMN protein levels in cells is through use of a cytoblot assay, in which cells are fixed and probed with an antibody against a target protein of interest.
Using the cytoblot assay, we can clearly distinguish SMN protein levels in patient (GM03813) versus carrier fibroblast cells (GM03814).
The SMN cytoblot protocol is described below.
• 1. Plate 50 μl per well of 300,000 cells/ml (15,000 cells per well) into Nunc white 384-well opaque-bottomed plates. • 2. Incubate plates at 37° C., 5% CO2 overnight. Day 2 • 1. Aspirate media from wells using Tecan plate washer. • 2. Fix cells by adding 20 μl/well of cold methanol (kept in −20° C. freezer). • 3. Incubate plates in 4° C. refrigerator for 10 minutes. • 4. Aspirate methanol using Tecan plate washer. • 5. Add 50 μl/well of primary Ab solution, (BD anti-SMN Ab diluted to 125 ng/ml in 10% fetal goat serum PBST), using multi-drop. • 6. Seal plates and incubate overnight at room temperature. Day 3 • 1. After 16-20 hrs incubation, wash plates with PBST 2× using Tecan plate washer. • 2. Add 50 μl of secondary Ab solution, (Santa Cruz goat anti-Mouse-HRP diluted to 67 ng/ml in 10% fetal goat serum PBST). • 3. Seal plates and incubate 2 hrs at room temperature. • 4. Wash plates with PBST 2× using Tecan plate washer. • 5. Add 50 μl/well 10% fetal goat serum PBST. • 6. Incubate in 4° C. refrigerator for 10 minutes. • 7. Aspirate plates using plate washer and add ECL luminescence solution, 20 μl/well. • 8. Measure luminescence on plate reader. Automated Scoring
We scored each compound based on the maximum signal-to-noise ratio (SNR) found among its dose curves. These scores are based on edge-corrected SMN data, using only plates that passed quality control. The untreated level on each plate was found by taking the median of the untreated wells, and for each treated well we calculated a log(T/U) ratio. Each curve was generated in triplicate on each plate, so each point on a compound's dose curve was obtained by determining the median for the replicate points. Each ratio thus has an error estimate from the scatter between the triplicate data points (1.5 times the median absolute deviation from the median). For each dose curve, we calculated the SNR for each data point log(T/U)/error, and chose the maximum point as our indicator of SMN induction activity. Since this is a signal-to-noise score, scores much greater than one indicate significant activity, assuming normal statistics. We decided to use a cutoff signal-to-noise ratio of 6. This selection represents a considerable enrichment towards visually-selected compounds. We identified 100 out of 2000 compounds producing scores>6. This included 13 of the 28 visual selections.
• 1. […] Type 3 reversal of curve hits […]

[2] = system: SMN protein; experiment: Western blot of SMN protein in treated cells; assay type: cell-based, human; details: 72 hours treatment, densitometry, fold change relative to vehicle (DMSO)
Description: Effects on SMN protein levels were also confirmed by western blots. Cells were treated with compound or vehicle for 72 hours. Cell lysates were prepared and analyzed by western blot. SMN protein levels were quantified by densitometry and normalized to an internal control protein (GAPdH or EIF4e) (FIGS. 4-6). The SMN/control ratios shown in FIGS. 4-6 depict the fold change relative to vehicle (DMSO) control.

Structure (SMILES)	SMN protein levels [1]	SMN per viable cell (normalized hit) [1]	SMN protein relative to control proteins GAPdH and eIF4E [2]
NC12CC3CC(CC(C3)C1)C2 [amantadine]	increase SMN protein levels	normalized hits	–
CC12CC3CC(C)(C1)CC(N)(C3)C2 [memantine, 1-amino-3,5-dimethyl adamantane]	increase SMN protein levels	normalized hits	increases in SMN protein
